Test results published in patent US7592000B2, “Method of tanning human body by mysting or immersion at elevated temperature” (Merck Patent GmbH, priority 2004, dated 2009).

What was measured:
[1] = monomer/dimer equilibrium of DHA dissolved in water; type: physicochemical; details: DHA solutions at 30-50° C. versus 20° C.
From the text: It is assumed that the effect, advantageous according to the invention, of the improved tanning effect at elevated temperatures in the case of 1,3-dihydroxyacetone is connected with the following mechanism. As a raw material, DHA is in the form of a powder and consists of dimers. Dissolved in water, some of the dimers convert to the active monomeric form, which brings about the tanning reaction. At an elevated water temperature, the amount of monomers increases. […] At the same time, the elevated temperature increases the reaction rate of the tanning reaction. […] It is therefore preferred according to the invention when the solution of the self-tanning substance is tempered for about 15 min, but at least about 10 min, before the solution is applied to the human skin.

[2] = over the entire pH range; cited from earlier work

Row | SMILES | more active DHA monomers present than in DHA solutions at 20° C. [1] | antioxidative activity relative to the investigated structures [2]
1 | O=C(CO)CO [DHA, 1,3-dihydroxyacetone] | up to 30% | 
2 | O=c1c(O)c(-c2ccc(O)c(O)c2)oc2cc(O)cc(O)c12 [quercetin, 3,3′,4′,5,7-pentahydroxyflavone] |  | highest activity of the investigated structures
